Measurements taken from patent publication US20170184612A1, “USE OF LEUKOCYTES AND NOVEL BIOMARKERS IN THE DIAGNOSIS, CONFIRMATION, AND TREATMENT OF A NEUROLOGICAL DISORDER” (The Trustees of Columbia University in the City of New York, priority 2014, published 2017).

Legend:
[1] = tested on: peripheral blood mononuclear cells (PBMC), T cells; assay: ELISpot assay, IL-5 release (SFC) after stimulation with a-synuclein epitope pools; type: cell-based, human
Method: (§1) Blood from age matched controls and PD patients were obtained and mononuclear cells were isolated by gradient centrifugation.
(§2) Release of the cytokines gamma-interferon, which measures activation of CD4+ and/or CD8+ T cells, and the interleukin, IL-5, which measures activation of CD4+ T cells was measured by ELISpot assay. […] After 22 hours of stimulation at 37 C, the cells were removed and release of cytokines was measured by colorimetric detection of spot-forming cells (SFC). Confirmed release of cytokine is determined by the presence of a minimum of 20 SFC per million cells.
(§3) The binding algorithms in SubAim 1 predict how well the peptides would bind to MHC if present, but not if they are present in patients. To determine this, the presence of T cell response against the candidate antigens by patient blood-derived peripheral blood mononuclear cells (PBMC) is assessed by ELISPOT assays upon stimulation with the peptides. This assay detects and quantifies cytokine release (in this case, IFNγ and IL-5) from specific activated T cells.
(§4) Data were obtained from blood samples (25 ml) from 44 PD patients and 24 age-matched controls. The experiments were conducted blindly. PBMCs from these samples were isolated and exposed to pools comprising the 122 candidate class I and class II antigens and phosphorylated S129 epitopes generated in Subaim 1. For the PBMCs responsive to the pooled peptides, the response was then deconvoluted to identify individual epitopes.
(§5) PMBC fractions are recovered by standard methods with Ficoll gradient and T cells expansion (Oseroff et al., 2010). The methods for the analysis of T cell reactions and measurement of cytokines production using the enzyme-linked immunosorbent spot (ELISPOT) assay are published in analogous experiments to discover antigens in multiple sclerosis (Lolli et al., 2013) and in hay fever allergens (Oseroff et al., 2010). T cell responses are determined by measuring IFNγ and IL-5 release by ELISPOT. Statistical analysis of differences between populations is expected to be non-parametric and analyzed with the U-Mann-Whitney test. If there were a normal distribution of response, which is a priori unlikely as some patients have no T cell response, with an SD=1, 8 patients per group would be required to provide a p>90% that the study detect a >2 fold difference at a two-sided 0.05 significance level.

[2] = tested on: peripheral blood mononuclear cells (PBMC), T cells; assay: ELISpot assay, gamma-interferon release (SFC) after stimulation with a-synuclein epitope pools; type: cell-based, human; conditions: for Pool +: IFNg, Pool Stimulated, number of donors with a positive response, Donors tested 1
Method: as §1, §2, §3, §4, §5

[3] = Patients Summary, PD patients, of donors tested (peptide)
[4] = Patients Summary, PD patients, single peptide
[5] = Patients Summary, Phospho pool peptides
[6] = Patients Summary, Phospho pool peptides, 10 donors tested
[7] = number of donors positive to the single peptide, second 'Pool Stimulated' section (from r296), 12 donors tested
[8] = peptide + / donors tested (peptide), second 'Pool Stimulated' section (from r296), 12 donors tested
[9] = peptides of pool 'Poshpho', 8 donors tested
[10] = peptides of pool 'Poshpho', 8 donors tested, number of donors positive
[11] = single peptide, second 'Pool Stimulated' section (from r296), 12 donors tested
[12] = pool 'Phospho' (phosphorylated peptides)

Substance	IL-g Peptide + (donors positive to the peptide) [1, 3]	IL-g Response Frequency [1, 4] [%]	IL-g Total SFC [1, 4] [SFC]	IL-g Peptide + [1, 7]	IL-g Response Frequency [1, 8] [%]	IL-g Total SFC [1, 11] [SFC]	Pool + [2]	IFNg Peptide + (donors positive to the peptide) [2, 3]	IFNg Response Frequency [2, 4] [%]	IFNg Total SFC [2, 4] [SFC]	IFNg Peptide + [2, 7]	IFNg Response Frequency [2, 8] [%]	IFNg Total SFC [2, 11] [SFC]	IFNg Avg SFC [2, 4] [SFC]	IL-g Avg SFC [1, 4] [SFC]	other results
3521.0028 (MPSEEGYQDY; listed as Homo sapiens)	0	0	0	0	0	0	0	0	0	0	0	0				IL-g Avg SFC [1, 5]: 350 SFC; IL-g Response Frequency [1, 5]: 20%; IL-g Total SFC [1, 5]: 700.3 SFC; IL-g Peptide + (donors positive to the peptide) [1, 6]: 2; IL-g Avg SFC [1, 9]: 113 SFC; IL-g Response Frequency [1, 9]: 13%; IL-g Total SFC [1, 9]: 113 SFC; IL-g Peptide + [1, 10]: 1; Pool + [2, 12]: 1; IFNg Avg SFC [2, 5]: 420 SFC; IFNg Response Frequency [2, 5]: 30%; IFNg Total SFC [2, 5]: 1260 SFC; IFNg Peptide + (donors positive to the peptide) [2, 6]: 3; IFNg Avg SFC [2, 9]: 40 SFC; IFNg Response Frequency [2, 9]: 13%; IFNg Total SFC [2, 9]: 40 SFC; IFNg Peptide + [2, 10]: 1
3521.0029 (NVGGAVVTGV; listed as Homo sapiens)	0	0	0	0	0	0	0	0	0	0	0	0	0			
3521.0031 (YVGSKTKEGV; listed as Homo sapiens)	0	0	0				0	1	17	153				153		
3521.0032 (GAVVTGVTAV; listed as Homo sapiens)	0	0	0	0	0	0	1	0	0	0	0	0	0			
3521.0033 (VLYVGSKTKK; listed as Homo sapiens)	3	50	528				1	5	83	1626				325	176	
3521.0034 (GVLYVGSKTK; listed as Homo sapiens)	2	33	284				1	5	83	2260				452	142	
3521.0035 (SIAAATGFVK; listed as Homo sapiens)	1	25	1898	1	50	536	1	1	25	1946	0	0	0	1946	1898	IL-g Avg SFC [1, 11]: 536 SFC
3521.0036 (AGSIAAATGF; listed as Homo sapiens)	0	0	0	0	0	0	0	0	0	0	0	0	0			
3521.0037 (LYVGSKTKEG; listed as Homo sapiens)	1	17	754				0	1	17	248				248	754	
3521.0038 (EMPSEEGYQD; listed as Homo sapiens)	0	0	0				0	0	0	0						IL-g Avg SFC [1, 5]: 620 SFC; IL-g Response Frequency [1, 5]: 10%; IL-g Total SFC [1, 5]: 620 SFC; IL-g Peptide + (donors positive to the peptide) [1, 6]: 1; IL-g Avg SFC [1, 9]: 33 SFC; IL-g Response Frequency [1, 9]: 13%; IL-g Total SFC [1, 9]: 33 SFC; IL-g Peptide + [1, 10]: 1; Pool + [2, 12]: 1; IFNg Avg SFC [2, 5]: 502 SFC; IFNg Response Frequency [2, 5]: 30%; IFNg Total SFC [2, 5]: 1507 SFC; IFNg Peptide + (donors positive to the peptide) [2, 6]: 3; IFNg Avg SFC [2, 9]: 40 SFC; IFNg Response Frequency [2, 9]: 13%; IFNg Total SFC [2, 9]: 40 SFC; IFNg Peptide + [2, 10]: 1
3521.0041 (EGILEDMPVD; listed as Homo sapiens)	0	0	0	0	0	0	0	0	0	0	0	0				
3521.0042 (AGKTKEGVLY; listed as Homo sapiens)	0	0	0	0	0	0	0	1	13	31	0	0	0	31		
3521.0044 (GVTAVAQKTV; listed as Homo sapiens)	0	0	0	0	0	0	0	0	0	0	0	0	0			
